Test system: COG-LL-402h
Experiment: selective drug sensitivity score (sDSS, relative to normal bone marrow) (sDSS (score)); higher = more potent and effective on the cell line relative to normal bone marrow cells
Conditions: 72 h
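Also: ALL cell lines in 384-well plates, five doses spanning 10,000-fold, each plate scaled between vehicle and 100 µmol/L benzalkonium chloride controls, sDSS an adapted area-under-curve metric.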

Structure (SMILES)	selective drug sensitivity score
CC(C)(C)c1cnc(CSc2cnc(NC(=O)C3CCNCC3)s2)o1 [SNS-032] (top concentration 10000 nM)	3.06
Cn1cncc1[C@@](N)(c1ccc(Cl)cc1)c1ccc2c(c1)c(-c1cccc(Cl)c1)cc(=O)n2C [Tipifarnib] (top concentration 10000 nM)	6.6
COc1ccccc1S(=O)(=O)Nc1ccc2c(c1)CN(C)C(=O)N2 [PFI-1] (top concentration 30000 nM)	3.1
Cc1cn(-c2cc(NC(=O)c3ccc(C)c(Nc4nccc(-c5cnccn5)n4)c3)cc(C(F)(F)F)c2)cn1 [Radotinib] (top concentration 10000 nM)	0
CC[C@H](Nc1ncnc2[nH]cnc12)c1nc2cccc(F)c2c(=O)n1-c1ccccc1 [Idelalisib] (top concentration 10000 nM)	5.34
Cc1noc2c1-c1ccccc1C(c1ccc(Cl)cc1)=N[C@H]2CC(N)=O [CPI-0610] (top concentration 10000 nM)	4.9
C=C(c1ccc(C(=O)O)cc1)c1cc2c(cc1C)C(C)(C)CCC2(C)C [Bexarotene] (top concentration 10000 nM)	-5.3
CC1(COc2ccc3c(c2)ncn3-c2ccc3cccc(N4CCC(N)CC4)c3n2)COC1 [Crenolanib] (top concentration 10000 nM)	0.68
O=C(Nc1cc(Oc2cc(F)c(NC(=O)C3(C(=O)Nc4ccc(F)cc4)CC3)cc2F)ccn1)C1CC1 [Altiratinib] (top concentration 10000 nM)	-2.16
O=C(Nc1ccncc1)C(=O)c1cn(Cc2ccc(Cl)cc2)c2ccccc12 [Indibulin] (top concentration 10000 nM)	3.64
Cc1ncc(-c2ccnc(Nc3ccc(S(C)(=O)=O)cc3)n2)n1C(C)C [AZD-5438] (top concentration 10000 nM)	-0.46
NC[C@@](O)(c1ccc(Cl)cc1)c1ccc(-c2cn[nH]c2)cc1 (top concentration 10000 nM)	5.78
Cn1c(Nc2ccc(C(F)(F)F)cc2)nc2cc(Oc3ccnc(-c4ncc(C(F)(F)F)[nH]4)c3)ccc21 [NVP-RAF265] (top concentration 1000 nM)	5.98
CNCc1ccc(-c2[nH]c3cc(F)cc4c3c2CCNC4=O)cc1 [Rucaparib] (top concentration 10000 nM)	2.42
O=C(CCCCCCC(=O)Nc1ccc([C@H]2O[C@@H](CSc3nc(-c4ccccc4)c(-c4ccccc4)o3)C[C@@H](c3ccc(CO)cc3)O2)cc1)NO [Tubacin] (top concentration 10000 nM)	5.04
N#CCNC(=O)c1ccc(-c2ccnc(Nc3ccc(N4CCOCC4)cc3)n2)cc1 [Momelotinib] (top concentration 10000 nM)	-0.12
Nc1cccc2c1CN(C1CCC(=O)NC1=O)C2=O (stereo not given) [Lenalidomide] (top concentration 100000 nM)	-2.28
CCN1CCN(Cc2ccc(Nc3ncc(F)c(-c4cc(F)c5nc(C)n(C(C)C)c5c4)n3)nc2)CC1 [Abemaciclib] (top concentration 2500 nM)	1.74

Test system: DND-41
Experiment: as above
Conditions: 72 h

Structure (SMILES)	selective drug sensitivity score
CC(C)(C)c1cnc(CSc2cnc(NC(=O)C3CCNCC3)s2)o1 [SNS-032] (top concentration 10000 nM)	-2.44
Cn1cncc1[C@@](N)(c1ccc(Cl)cc1)c1ccc2c(c1)c(-c1cccc(Cl)c1)cc(=O)n2C [Tipifarnib] (top concentration 10000 nM)	2.8
COc1ccccc1S(=O)(=O)Nc1ccc2c(c1)CN(C)C(=O)N2 [PFI-1] (top concentration 30000 nM)	2.3
Cc1cn(-c2cc(NC(=O)c3ccc(C)c(Nc4nccc(-c5cnccn5)n4)c3)cc(C(F)(F)F)c2)cn1 [Radotinib] (top concentration 10000 nM)	13.8
CC[C@H](Nc1ncnc2[nH]cnc12)c1nc2cccc(F)c2c(=O)n1-c1ccccc1 [Idelalisib] (top concentration 10000 nM)	-1.16
Cc1noc2c1-c1ccccc1C(c1ccc(Cl)cc1)=N[C@H]2CC(N)=O [CPI-0610] (top concentration 10000 nM)	1.6
C=C(c1ccc(C(=O)O)cc1)c1cc2c(cc1C)C(C)(C)CCC2(C)C [Bexarotene] (top concentration 10000 nM)	-5.3
CC1(COc2ccc3c(c2)ncn3-c2ccc3cccc(N4CCC(N)CC4)c3n2)COC1 [Crenolanib] (top concentration 10000 nM)	0.98
O=C(Nc1cc(Oc2cc(F)c(NC(=O)C3(C(=O)Nc4ccc(F)cc4)CC3)cc2F)ccn1)C1CC1 [Altiratinib] (top concentration 10000 nM)	3.74
O=C(Nc1ccncc1)C(=O)c1cn(Cc2ccc(Cl)cc2)c2ccccc12 [Indibulin] (top concentration 10000 nM)	5.54
Cc1ncc(-c2ccnc(Nc3ccc(S(C)(=O)=O)cc3)n2)n1C(C)C [AZD-5438] (top concentration 10000 nM)	-2.06
NC[C@@](O)(c1ccc(Cl)cc1)c1ccc(-c2cn[nH]c2)cc1 (top concentration 10000 nM)	-1.22
Cn1c(Nc2ccc(C(F)(F)F)cc2)nc2cc(Oc3ccnc(-c4ncc(C(F)(F)F)[nH]4)c3)ccc21 [NVP-RAF265] (top concentration 1000 nM)	3.58
CNCc1ccc(-c2[nH]c3cc(F)cc4c3c2CCNC4=O)cc1 [Rucaparib] (top concentration 10000 nM)	-0.38
O=C(CCCCCCC(=O)Nc1ccc([C@H]2O[C@@H](CSc3nc(-c4ccccc4)c(-c4ccccc4)o3)C[C@@H](c3ccc(CO)cc3)O2)cc1)NO [Tubacin] (top concentration 10000 nM)	5.54
N#CCNC(=O)c1ccc(-c2ccnc(Nc3ccc(N4CCOCC4)cc3)n2)cc1 [Momelotinib] (top concentration 10000 nM)	-0.32
Nc1cccc2c1CN(C1CCC(=O)NC1=O)C2=O (stereo not given) [Lenalidomide] (top concentration 100000 nM)	2.12
CCN1CCN(Cc2ccc(Nc3ncc(F)c(-c4cc(F)c5nc(C)n(C(C)C)c5c4)n3)nc2)CC1 [Abemaciclib] (top concentration 2500 nM)	0.34

Test system: HAL-01
Experiment: as above
Conditions: 72 h

Structure (SMILES)	selective drug sensitivity score
CC(C)(C)c1cnc(CSc2cnc(NC(=O)C3CCNCC3)s2)o1 [SNS-032] (top concentration 10000 nM)	-8.04
Cn1cncc1[C@@](N)(c1ccc(Cl)cc1)c1ccc2c(c1)c(-c1cccc(Cl)c1)cc(=O)n2C [Tipifarnib] (top concentration 10000 nM)	6.3
COc1ccccc1S(=O)(=O)Nc1ccc2c(c1)CN(C)C(=O)N2 [PFI-1] (top concentration 30000 nM)	0.3
Cc1cn(-c2cc(NC(=O)c3ccc(C)c(Nc4nccc(-c5cnccn5)n4)c3)cc(C(F)(F)F)c2)cn1 [Radotinib] (top concentration 10000 nM)	0
CC[C@H](Nc1ncnc2[nH]cnc12)c1nc2cccc(F)c2c(=O)n1-c1ccccc1 [Idelalisib] (top concentration 10000 nM)	16.1
Cc1noc2c1-c1ccccc1C(c1ccc(Cl)cc1)=N[C@H]2CC(N)=O [CPI-0610] (top concentration 10000 nM)	-2.2
C=C(c1ccc(C(=O)O)cc1)c1cc2c(cc1C)C(C)(C)CCC2(C)C [Bexarotene] (top concentration 10000 nM)	-0.9
CC1(COc2ccc3c(c2)ncn3-c2ccc3cccc(N4CCC(N)CC4)c3n2)COC1 [Crenolanib] (top concentration 10000 nM)	-1.82
O=C(Nc1cc(Oc2cc(F)c(NC(=O)C3(C(=O)Nc4ccc(F)cc4)CC3)cc2F)ccn1)C1CC1 [Altiratinib] (top concentration 10000 nM)	1.14
O=C(Nc1ccncc1)C(=O)c1cn(Cc2ccc(Cl)cc2)c2ccccc12 [Indibulin] (top concentration 10000 nM)	5.34
Cc1ncc(-c2ccnc(Nc3ccc(S(C)(=O)=O)cc3)n2)n1C(C)C [AZD-5438] (top concentration 10000 nM)	-5.96
NC[C@@](O)(c1ccc(Cl)cc1)c1ccc(-c2cn[nH]c2)cc1 (top concentration 10000 nM)	1.08
Cn1c(Nc2ccc(C(F)(F)F)cc2)nc2cc(Oc3ccnc(-c4ncc(C(F)(F)F)[nH]4)c3)ccc21 [NVP-RAF265] (top concentration 1000 nM)	5.68
CNCc1ccc(-c2[nH]c3cc(F)cc4c3c2CCNC4=O)cc1 [Rucaparib] (top concentration 10000 nM)	4.32
O=C(CCCCCCC(=O)Nc1ccc([C@H]2O[C@@H](CSc3nc(-c4ccccc4)c(-c4ccccc4)o3)C[C@@H](c3ccc(CO)cc3)O2)cc1)NO [Tubacin] (top concentration 10000 nM)	2.14
N#CCNC(=O)c1ccc(-c2ccnc(Nc3ccc(N4CCOCC4)cc3)n2)cc1 [Momelotinib] (top concentration 10000 nM)	-5.22
Nc1cccc2c1CN(C1CCC(=O)NC1=O)C2=O (stereo not given) [Lenalidomide] (top concentration 100000 nM)	4.22
CCN1CCN(Cc2ccc(Nc3ncc(F)c(-c4cc(F)c5nc(C)n(C(C)C)c5c4)n3)nc2)CC1 [Abemaciclib] (top concentration 2500 nM)	-3.06

Test system: KASUMI-10
Experiment: as above
Conditions: 72 h

Structure (SMILES)	selective drug sensitivity score
CC(C)(C)c1cnc(CSc2cnc(NC(=O)C3CCNCC3)s2)o1 [SNS-032] (top concentration 10000 nM)	-2.64
Cn1cncc1[C@@](N)(c1ccc(Cl)cc1)c1ccc2c(c1)c(-c1cccc(Cl)c1)cc(=O)n2C [Tipifarnib] (top concentration 10000 nM)	3
COc1ccccc1S(=O)(=O)Nc1ccc2c(c1)CN(C)C(=O)N2 [PFI-1] (top concentration 30000 nM)	3.5
Cc1cn(-c2cc(NC(=O)c3ccc(C)c(Nc4nccc(-c5cnccn5)n4)c3)cc(C(F)(F)F)c2)cn1 [Radotinib] (top concentration 10000 nM)	0
CC[C@H](Nc1ncnc2[nH]cnc12)c1nc2cccc(F)c2c(=O)n1-c1ccccc1 [Idelalisib] (top concentration 10000 nM)	-0.26
Cc1noc2c1-c1ccccc1C(c1ccc(Cl)cc1)=N[C@H]2CC(N)=O [CPI-0610] (top concentration 10000 nM)	4.6
C=C(c1ccc(C(=O)O)cc1)c1cc2c(cc1C)C(C)(C)CCC2(C)C [Bexarotene] (top concentration 10000 nM)	-1.9
CC1(COc2ccc3c(c2)ncn3-c2ccc3cccc(N4CCC(N)CC4)c3n2)COC1 [Crenolanib] (top concentration 10000 nM)	12.9
O=C(Nc1cc(Oc2cc(F)c(NC(=O)C3(C(=O)Nc4ccc(F)cc4)CC3)cc2F)ccn1)C1CC1 [Altiratinib] (top concentration 10000 nM)	8.84
O=C(Nc1ccncc1)C(=O)c1cn(Cc2ccc(Cl)cc2)c2ccccc12 [Indibulin] (top concentration 10000 nM)	11.3
Cc1ncc(-c2ccnc(Nc3ccc(S(C)(=O)=O)cc3)n2)n1C(C)C [AZD-5438] (top concentration 10000 nM)	6.04
NC[C@@](O)(c1ccc(Cl)cc1)c1ccc(-c2cn[nH]c2)cc1 (top concentration 10000 nM)	-1.22
Cn1c(Nc2ccc(C(F)(F)F)cc2)nc2cc(Oc3ccnc(-c4ncc(C(F)(F)F)[nH]4)c3)ccc21 [NVP-RAF265] (top concentration 1000 nM)	6.08
CNCc1ccc(-c2[nH]c3cc(F)cc4c3c2CCNC4=O)cc1 [Rucaparib] (top concentration 10000 nM)	1.12
O=C(CCCCCCC(=O)Nc1ccc([C@H]2O[C@@H](CSc3nc(-c4ccccc4)c(-c4ccccc4)o3)C[C@@H](c3ccc(CO)cc3)O2)cc1)NO [Tubacin] (top concentration 10000 nM)	4.54
N#CCNC(=O)c1ccc(-c2ccnc(Nc3ccc(N4CCOCC4)cc3)n2)cc1 [Momelotinib] (top concentration 10000 nM)	0.98
Nc1cccc2c1CN(C1CCC(=O)NC1=O)C2=O (stereo not given) [Lenalidomide] (top concentration 100000 nM)	3.22
CCN1CCN(Cc2ccc(Nc3ncc(F)c(-c4cc(F)c5nc(C)n(C(C)C)c5c4)n3)nc2)CC1 [Abemaciclib] (top concentration 2500 nM)	-1.06

Test system: KASUMI-9
Experiment: as above
Conditions: 72 h

Structure (SMILES)	selective drug sensitivity score
CC(C)(C)c1cnc(CSc2cnc(NC(=O)C3CCNCC3)s2)o1 [SNS-032] (top concentration 10000 nM)	-0.54
Cn1cncc1[C@@](N)(c1ccc(Cl)cc1)c1ccc2c(c1)c(-c1cccc(Cl)c1)cc(=O)n2C [Tipifarnib] (top concentration 10000 nM)	3.1
COc1ccccc1S(=O)(=O)Nc1ccc2c(c1)CN(C)C(=O)N2 [PFI-1] (top concentration 30000 nM)	6
Cc1cn(-c2cc(NC(=O)c3ccc(C)c(Nc4nccc(-c5cnccn5)n4)c3)cc(C(F)(F)F)c2)cn1 [Radotinib] (top concentration 10000 nM)	9.2
CC[C@H](Nc1ncnc2[nH]cnc12)c1nc2cccc(F)c2c(=O)n1-c1ccccc1 [Idelalisib] (top concentration 10000 nM)	7.54
Cc1noc2c1-c1ccccc1C(c1ccc(Cl)cc1)=N[C@H]2CC(N)=O [CPI-0610] (top concentration 10000 nM)	8.4
C=C(c1ccc(C(=O)O)cc1)c1cc2c(cc1C)C(C)(C)CCC2(C)C [Bexarotene] (top concentration 10000 nM)	-3.4
CC1(COc2ccc3c(c2)ncn3-c2ccc3cccc(N4CCC(N)CC4)c3n2)COC1 [Crenolanib] (top concentration 10000 nM)	-0.02
O=C(Nc1cc(Oc2cc(F)c(NC(=O)C3(C(=O)Nc4ccc(F)cc4)CC3)cc2F)ccn1)C1CC1 [Altiratinib] (top concentration 10000 nM)	-0.16
O=C(Nc1ccncc1)C(=O)c1cn(Cc2ccc(Cl)cc2)c2ccccc12 [Indibulin] (top concentration 10000 nM)	12
Cc1ncc(-c2ccnc(Nc3ccc(S(C)(=O)=O)cc3)n2)n1C(C)C [AZD-5438] (top concentration 10000 nM)	-0.26
NC[C@@](O)(c1ccc(Cl)cc1)c1ccc(-c2cn[nH]c2)cc1 (top concentration 10000 nM)	3.78
Cn1c(Nc2ccc(C(F)(F)F)cc2)nc2cc(Oc3ccnc(-c4ncc(C(F)(F)F)[nH]4)c3)ccc21 [NVP-RAF265] (top concentration 1000 nM)	4.48
CNCc1ccc(-c2[nH]c3cc(F)cc4c3c2CCNC4=O)cc1 [Rucaparib] (top concentration 10000 nM)	2.72
O=C(CCCCCCC(=O)Nc1ccc([C@H]2O[C@@H](CSc3nc(-c4ccccc4)c(-c4ccccc4)o3)C[C@@H](c3ccc(CO)cc3)O2)cc1)NO [Tubacin] (top concentration 10000 nM)	6.54
N#CCNC(=O)c1ccc(-c2ccnc(Nc3ccc(N4CCOCC4)cc3)n2)cc1 [Momelotinib] (top concentration 10000 nM)	-0.12
Nc1cccc2c1CN(C1CCC(=O)NC1=O)C2=O (stereo not given) [Lenalidomide] (top concentration 100000 nM)	7.42
CCN1CCN(Cc2ccc(Nc3ncc(F)c(-c4cc(F)c5nc(C)n(C(C)C)c5c4)n3)nc2)CC1 [Abemaciclib] (top concentration 2500 nM)	5.44

— the supplement of paper PMC8967900
